Reference: the NIST ThermoML archive (doi:10.1016/j.jct.2018.11.004)
Numbers after ± are expanded uncertainties.

Assay: molar heat capacity at constant pressure

CC(C)[C@@H]1CC[C@@H](C)C[C@H]1O [L-menthol]
Details | molar heat capacity at constant pressure [J/K/mol]
5 K, 101.33 kPa, Crystal 1, Small (less than 1 g) adiabatic calorimetry | 0.858 ± 0.036
10 K, 101.33 kPa, Crystal 1, Small (less than 1 g) adiabatic calorimetry | 5.528 ± 0.13
15 K, 101.33 kPa, Crystal 1, Small (less than 1 g) adiabatic calorimetry | 12.7 ± 0.25
20 K, 101.33 kPa, Crystal 1, Small (less than 1 g) adiabatic calorimetry | 20.26 ± 0.33
25 K, 101.33 kPa, Crystal 1, Small (less than 1 g) adiabatic calorimetry | 27.36 ± 0.37
30 K, 101.33 kPa, Crystal 1, Small (less than 1 g) adiabatic calorimetry | 33.65 ± 0.35
35 K, 101.33 kPa, Crystal 1, Small (less than 1 g) adiabatic calorimetry | 39.12 ± 0.33
40 K, 101.33 kPa, Crystal 1, Small (less than 1 g) adiabatic calorimetry | 44.06 ± 0.29
45 K, 101.33 kPa, Crystal 1, Small (less than 1 g) adiabatic calorimetry | 48.69 ± 0.31
50 K, 101.33 kPa, Crystal 1, Small (less than 1 g) adiabatic calorimetry | 53.14 ± 0.33
55 K, 101.33 kPa, Crystal 1, Small (less than 1 g) adiabatic calorimetry | 57.47 ± 0.36
60 K, 101.33 kPa, Crystal 1, Small (less than 1 g) adiabatic calorimetry | 61.81 ± 0.38
65 K, 101.33 kPa, Crystal 1, Small (less than 1 g) adiabatic calorimetry | 66.15 ± 0.4
70 K, 101.33 kPa, Crystal 1, Small (less than 1 g) adiabatic calorimetry | 70.48 ± 0.43
75 K, 101.33 kPa, Crystal 1, Small (less than 1 g) adiabatic calorimetry | 74.81 ± 0.45
80 K, 101.33 kPa, Crystal 1, Small (less than 1 g) adiabatic calorimetry | 79.11 ± 0.47
85 K, 101.33 kPa, Crystal 1, Small (less than 1 g) adiabatic calorimetry | 83.38 ± 0.49
90 K, 101.33 kPa, Crystal 1, Small (less than 1 g) adiabatic calorimetry | 87.62 ± 0.52
95 K, 101.33 kPa, Crystal 1, Small (less than 1 g) adiabatic calorimetry | 91.81 ± 0.55
100 K, 101.33 kPa, Crystal 1, Small (less than 1 g) adiabatic calorimetry | 95.95 ± 0.56
105 K, 101.33 kPa, Crystal 1, Small (less than 1 g) adiabatic calorimetry | 100 ± 0.6
110 K, 101.33 kPa, Crystal 1, Small (less than 1 g) adiabatic calorimetry | 104 ± 0.6
115 K, 101.33 kPa, Crystal 1, Small (less than 1 g) adiabatic calorimetry | 108 ± 0.6
120 K, 101.33 kPa, Crystal 1, Small (less than 1 g) adiabatic calorimetry | 111.8 ± 0.6
125 K, 101.33 kPa, Crystal 1, Small (less than 1 g) adiabatic calorimetry | 115.7 ± 0.7
130 K, 101.33 kPa, Crystal 1, Small (less than 1 g) adiabatic calorimetry | 119.4 ± 0.7
135 K, 101.33 kPa, Crystal 1, Small (less than 1 g) adiabatic calorimetry | 123.1 ± 0.7
140 K, 101.33 kPa, Crystal 1, Small (less than 1 g) adiabatic calorimetry | 126.8 ± 0.7
145 K, 101.33 kPa, Crystal 1, Small (less than 1 g) adiabatic calorimetry | 130.4 ± 0.7
150 K, 101.33 kPa, Crystal 1, Small (less than 1 g) adiabatic calorimetry | 134 ± 0.7
155 K, 101.33 kPa, Crystal 1, Small (less than 1 g) adiabatic calorimetry | 137.5 ± 0.8
160 K, 101.33 kPa, Crystal 1, Small (less than 1 g) adiabatic calorimetry | 141.1 ± 0.8
165 K, 101.33 kPa, Crystal 1, Small (less than 1 g) adiabatic calorimetry | 144.6 ± 0.8
170 K, 101.33 kPa, Crystal 1, Small (less than 1 g) adiabatic calorimetry | 148.1 ± 0.8
175 K, 101.33 kPa, Crystal 1, Small (less than 1 g) adiabatic calorimetry | 151.6 ± 0.8
180 K, 101.33 kPa, Crystal 1, Small (less than 1 g) adiabatic calorimetry | 155.1 ± 0.8
185 K, 101.33 kPa, Crystal 1, Small (less than 1 g) adiabatic calorimetry | 158.6 ± 0.8
190 K, 101.33 kPa, Crystal 1, Small (less than 1 g) adiabatic calorimetry | 162.2 ± 0.9
195 K, 101.33 kPa, Crystal 1, Small (less than 1 g) adiabatic calorimetry | 165.7 ± 0.9
200 K, 101.33 kPa, Crystal 1, Small (less than 1 g) adiabatic calorimetry | 169.3 ± 0.9
205 K, 101.33 kPa, Crystal 1, Small (less than 1 g) adiabatic calorimetry | 172.8 ± 0.9
210 K, 101.33 kPa, Crystal 1, Small (less than 1 g) adiabatic calorimetry | 176.4 ± 1
215 K, 101.33 kPa, Crystal 1, Small (less than 1 g) adiabatic calorimetry | 180 ± 1
220 K, 101.33 kPa, Crystal 1, Small (less than 1 g) adiabatic calorimetry | 183.7 ± 1
225 K, 101.33 kPa, Crystal 1, Small (less than 1 g) adiabatic calorimetry | 187.4 ± 1
230 K, 101.33 kPa, Crystal 1, Small (less than 1 g) adiabatic calorimetry | 191.1 ± 1.1
235 K, 101.33 kPa, Crystal 1, Small (less than 1 g) adiabatic calorimetry | 194.9 ± 1.1
240 K, 101.33 kPa, Crystal 1, Small (less than 1 g) adiabatic calorimetry | 198.7 ± 1.1
245 K, 101.33 kPa, Crystal 1, Small (less than 1 g) adiabatic calorimetry | 202.5 ± 1.1
250 K, 101.33 kPa, Crystal 1, Small (less than 1 g) adiabatic calorimetry | 206.5 ± 1.1
255 K, 101.33 kPa, Crystal 1, Small (less than 1 g) adiabatic calorimetry | 210.7 ± 1.1
260 K, 101.33 kPa, Crystal 1, Small (less than 1 g) adiabatic calorimetry | 215.1 ± 1.2
265 K, 101.33 kPa, Crystal 1, Small (less than 1 g) adiabatic calorimetry | 219.5 ± 1.2
265.2 K, 100 kPa, Crystal 1, Extra sensitive DSC | 221.5 ± 8.6
270 K, 100 kPa, Crystal 1, Extra sensitive DSC | 225.6 ± 8.7
270 K, 101.33 kPa, Crystal 1, Small (less than 1 g) adiabatic calorimetry | 223.9 ± 1.2
275 K, 100 kPa, Crystal 1, Extra sensitive DSC | 230 ± 8.9
275 K, 101.33 kPa, Crystal 1, Small (less than 1 g) adiabatic calorimetry | 228.2 ± 1.2
280 K, 100 kPa, Crystal 1, Extra sensitive DSC | 235.1 ± 9.1
280 K, 101.33 kPa, Crystal 1, Small (less than 1 g) adiabatic calorimetry | 232.4 ± 1.2
285 K, 100 kPa, Crystal 1, Extra sensitive DSC | 240.5 ± 9.3
285 K, 101.33 kPa, Crystal 1, Small (less than 1 g) adiabatic calorimetry | 236.7 ± 1.2
290 K, 100 kPa, Crystal 1, Extra sensitive DSC | 246.3 ± 9.5
290 K, 101.33 kPa, Crystal 1, Small (less than 1 g) adiabatic calorimetry | 241.5 ± 1.3
295 K, 100 kPa, Crystal 1, Extra sensitive DSC | 253.1 ± 9.8
295 K, 101.33 kPa, Crystal 1, Small (less than 1 g) adiabatic calorimetry | 246.7 ± 1.3
298.15 K, 101.33 kPa, Crystal 1, Small (less than 1 g) adiabatic calorimetry | 250.1 ± 1.3
300 K, 101.33 kPa, Crystal 1, Small (less than 1 g) adiabatic calorimetry | 252.3 ± 1.3
305 K, 101.33 kPa, Crystal 1, Small (less than 1 g) adiabatic calorimetry | 258.3 ± 1.3
310 K, 101.33 kPa, Crystal 1, Small (less than 1 g) adiabatic calorimetry | 264.6 ± 1.4
315 K, 101.33 kPa, Crystal 1, Small (less than 1 g) adiabatic calorimetry | 271.4 ± 1.4
315.6 K, 101.33 kPa, Crystal 1, Small (less than 1 g) adiabatic calorimetry | 272.3 ± 1.4

Liquid
Details | molar heat capacity at constant pressure [J/K/mol]
315.6 K, 101.33 kPa, Small (less than 1 g) adiabatic calorimetry | 376.1 ± 1.9
320 K, 101.33 kPa, Small (less than 1 g) adiabatic calorimetry | 383.1 ± 1.9
325 K, 101.33 kPa, Small (less than 1 g) adiabatic calorimetry | 390.8 ± 2
325.9 K, 100 kPa, Extra sensitive DSC | 395.1 ± 15
330 K, 100 kPa, Extra sensitive DSC | 401.1 ± 16
330 K, 101.33 kPa, Small (less than 1 g) adiabatic calorimetry | 398.1 ± 2
335 K, 100 kPa, Extra sensitive DSC | 408 ± 16
335 K, 101.33 kPa, Small (less than 1 g) adiabatic calorimetry | 404.9 ± 2.1
340 K, 100 kPa, Extra sensitive DSC | 414.3 ± 16
340 K, 101.33 kPa, Small (less than 1 g) adiabatic calorimetry | 411.3 ± 2.1
345 K, 100 kPa, Extra sensitive DSC | 420.5 ± 16
345 K, 101.33 kPa, Small (less than 1 g) adiabatic calorimetry | 417.1 ± 2.2
350 K, 100 kPa, Extra sensitive DSC | 426.2 ± 16
350 K, 101.33 kPa, Small (less than 1 g) adiabatic calorimetry | 422.3 ± 2.2
355 K, 100 kPa, Extra sensitive DSC | 430.8 ± 17
355 K, 101.33 kPa, Small (less than 1 g) adiabatic calorimetry | 427 ± 2.2
360 K, 101.33 kPa, Small (less than 1 g) adiabatic calorimetry | 431 ± 2.2
365 K, 101.33 kPa, Small (less than 1 g) adiabatic calorimetry | 434.3 ± 2.2
370 K, 101.33 kPa, Small (less than 1 g) adiabatic calorimetry | 437 ± 2.2
